Test results reported in US8326545B2, “System and method for displaying a pharmacokinetic and pharmacodynamic drug model” (General Electric Company, priority 2006, dated 2012).

Columns and labels:
[1] = Age MAC Awake (variation on MAC that accounts for age and adjusts to consciousness); type: in vivo, patient
Source text: Interactions are labeled “unknown” when (CeAA>0.3%*AgeMACawake); wherein AGEMACawake is a variation on MAC that accounts for age and adjusts to consciousness.

[2] = minimum alveolar concentration; cited from earlier work

SMILES	Age MAC Awake ([1]; age 18)	Age MAC Awake ([1]; donor one)	Age MAC Awake ([1]; donor two)	MAC [2]
FC(F)OC(F)C(F)(F)F (stereo not drawn) [Desflurane]	2.396	2.055	1.450	6
FC(F)OC(F)(F)C(F)Cl (stereo not drawn) [Enflurane]	0.679	0.582	0.411	1.7
FC(F)(F)C(Cl)Br (stereo not drawn) [Halothane]	0.481	0.413	0.291	0.75
FC(F)OC(Cl)C(F)(F)F (stereo not drawn) [Isoflurane]	0.459	0.394	0.278	1.15
[N-]=[N+]=O [Nitrous Oxide]	64.148	55.021	38.817	100
FCOC(C(F)(F)F)C(F)(F)F [Sevoflurane]	0.819	0.702	0.495	2.05
